Values quoted from earlier work in patent publication US20220154222A1, “NOVEL NUCLEIC ACID MODIFIERS” (THE BROAD INSTITUTE, INC., priority 2019, published 2022).

system: Factor VII gene silencing in hepatocytes; settings: LNP siRNA systems containing the ionizable cationic lipid; hepatocytes in vivo

Row | Compound | gene silencing potency, rank order of the series
1 | 1,2-dilinoleyloxy-keto-N,N-dimethyl-3-aminopropane [DLinKDMA] | DLinKC2-DMA>DLinKDMA>DLinDMA>>DLinDAP
2 | CCCCC/C=C\C/C=C\CCCCCCCC(=O)OCC(CN(C)C)OC(=O)CCCCCCC/C=C\C/C=C\CCCCC (stereo not shown) [DLinDAP, 1,2-dilineoyl-3-dimethylammonium-propane] | DLinKC2-DMA>DLinKDMA>DLinDMA>>DLinDAP
3 | CCCCC/C=C\C/C=C\CCCCCCCCOCC(CN(C)C)OCCCCCCCC/C=C\C/C=C\CCCCC (stereo not shown) [DLinDMA, 1,2-dilinoleyloxy-3-N,N-dimethylaminopropane] | DLinKC2-DMA>DLinKDMA>DLinDMA>>DLinDAP
4 | CCCCC/C=C\C/C=C\CCCCCCCCC1(CCCCCCCC/C=C\C/C=C\CCCCC)OCC(CCN(C)C)O1 (stereo not shown) [DLinKC2-DMA, 1,2-dilinoleyl-4-(2-dimethylaminoethyl)-[1,3]-dioxolane] | DLinKC2-DMA>DLinKDMA>DLinDMA>>DLinDAP
